Assay results taken from article PMC6556873, “Rapid Covalent-Probe Discovery by Electrophile-Fragment Screening” (Journal of the American Chemical Society, 2019).
Read-outs that look alike come from different tables or passages of the source. Blank lines part the entries; values can stand above or below the compound they belong to.

Legend:
NUDT7 = biological target: T1, NUDT7 (Homo sapiens, UniProt P0C024); design: Intact protein LC/MS covalent labelling, fragments in pools of five, 200 uM each, 4 °C; details: 24 h, 4 °C, pool of five; 200 µM; covalent
T1 construct: residues 14-235, E. coli, pNIC28-Bsa4, N-terminal His6 tag removed by TEV, construct 26672 Da
T1 sequence (P0C024 14-235): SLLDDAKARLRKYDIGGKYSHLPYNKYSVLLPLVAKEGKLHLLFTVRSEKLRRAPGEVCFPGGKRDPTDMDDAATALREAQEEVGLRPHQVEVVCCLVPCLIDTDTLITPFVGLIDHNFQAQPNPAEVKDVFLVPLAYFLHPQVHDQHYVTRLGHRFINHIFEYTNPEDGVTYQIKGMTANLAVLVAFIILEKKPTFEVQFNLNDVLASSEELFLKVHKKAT

BSA = biological target: T2, BSA (Bos taurus, UniProt P02769); design: Intact protein LC/MS covalent labelling, fragments in pools of five, 200 uM each, 4 °C; details: 24 h, 4 °C, pool of five; 200 µM; covalent
T2 construct: gene ALB
T2 sequence (P02769 whole entry, the tested form may be a part): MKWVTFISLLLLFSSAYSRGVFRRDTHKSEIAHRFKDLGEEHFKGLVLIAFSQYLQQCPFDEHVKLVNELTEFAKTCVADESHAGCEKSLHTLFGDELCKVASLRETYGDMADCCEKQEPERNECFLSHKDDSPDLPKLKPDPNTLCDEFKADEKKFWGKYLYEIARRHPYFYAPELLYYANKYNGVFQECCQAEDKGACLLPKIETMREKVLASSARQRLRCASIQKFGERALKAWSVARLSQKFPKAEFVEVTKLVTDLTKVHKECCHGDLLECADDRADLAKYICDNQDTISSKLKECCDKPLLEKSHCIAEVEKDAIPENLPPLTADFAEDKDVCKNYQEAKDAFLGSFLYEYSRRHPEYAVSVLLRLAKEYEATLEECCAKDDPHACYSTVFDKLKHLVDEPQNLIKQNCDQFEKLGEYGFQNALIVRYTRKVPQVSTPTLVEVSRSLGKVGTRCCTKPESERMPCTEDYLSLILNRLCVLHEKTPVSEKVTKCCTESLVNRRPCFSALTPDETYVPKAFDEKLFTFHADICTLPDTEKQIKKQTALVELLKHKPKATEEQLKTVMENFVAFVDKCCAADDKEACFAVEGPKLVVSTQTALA

NNMT (hNNMT) = biological target: T3, NNMT (hNNMT) (Homo sapiens, UniProt P40261); design: Intact protein LC/MS covalent labelling, fragments in pools of five, 200 uM each, 4 °C; details: 24 h, 4 °C, pool of five; 200 µM; covalent
T3 construct: wild type, N-terminal His6 tag kept (no cleavage described), E. coli, construct 31248 Da
T3 sequence (P40261 1-264): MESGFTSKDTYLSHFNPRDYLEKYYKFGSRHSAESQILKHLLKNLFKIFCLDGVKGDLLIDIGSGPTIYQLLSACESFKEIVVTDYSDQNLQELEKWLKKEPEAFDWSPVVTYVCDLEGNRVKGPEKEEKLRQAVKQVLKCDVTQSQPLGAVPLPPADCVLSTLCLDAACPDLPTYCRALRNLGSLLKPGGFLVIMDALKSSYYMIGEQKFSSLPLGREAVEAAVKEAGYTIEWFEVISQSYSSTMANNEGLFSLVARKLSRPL

PCAF = biological target: T4, PCAF (Homo sapiens, UniProt Q92831); design: Intact protein LC/MS covalent labelling, fragments in pools of five, 200 uM each, 4 °C; details: 24 h, 4 °C, pool of five; 200 µM; covalent
T4 construct: gene KAT2B
T4 sequence (Q92831 whole entry, the tested form may be a part): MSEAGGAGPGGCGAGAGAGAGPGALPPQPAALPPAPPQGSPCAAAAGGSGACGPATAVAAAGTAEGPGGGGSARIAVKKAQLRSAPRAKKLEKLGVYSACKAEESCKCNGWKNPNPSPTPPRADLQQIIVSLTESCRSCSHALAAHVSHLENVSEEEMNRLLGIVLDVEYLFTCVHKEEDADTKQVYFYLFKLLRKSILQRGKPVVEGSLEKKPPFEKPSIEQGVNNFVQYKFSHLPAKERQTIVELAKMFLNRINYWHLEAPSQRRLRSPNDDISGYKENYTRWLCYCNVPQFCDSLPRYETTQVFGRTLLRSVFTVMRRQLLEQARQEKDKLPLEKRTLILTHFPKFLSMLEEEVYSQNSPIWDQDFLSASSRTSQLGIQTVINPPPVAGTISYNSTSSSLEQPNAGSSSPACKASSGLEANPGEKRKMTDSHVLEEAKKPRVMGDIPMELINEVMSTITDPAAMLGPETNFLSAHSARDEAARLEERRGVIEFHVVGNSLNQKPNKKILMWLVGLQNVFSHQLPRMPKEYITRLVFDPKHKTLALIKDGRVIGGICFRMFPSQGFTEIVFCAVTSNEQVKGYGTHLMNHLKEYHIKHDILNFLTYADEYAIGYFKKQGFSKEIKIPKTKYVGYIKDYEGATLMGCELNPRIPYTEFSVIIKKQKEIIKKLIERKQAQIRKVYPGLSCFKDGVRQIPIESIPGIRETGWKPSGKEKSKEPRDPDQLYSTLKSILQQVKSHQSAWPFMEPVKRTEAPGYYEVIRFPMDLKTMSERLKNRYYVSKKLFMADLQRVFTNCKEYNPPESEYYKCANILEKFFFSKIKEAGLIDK

OTUB2 (OTUB2A) = biological target: T5, OTUB2 (OTUB2A) (Homo sapiens, UniProt Q96DC9); design: Intact protein LC/MS covalent labelling, fragments in pools of five, 200 uM each, 4 °C; details: 24 h, 4 °C, pool of five; 200 µM; covalent
T5 construct: full length residues 1-234, E. coli BL21(DE3)-R3, His tag removed by TEV, construct 27312 Da
T5 sequence (Q96DC9 1-234): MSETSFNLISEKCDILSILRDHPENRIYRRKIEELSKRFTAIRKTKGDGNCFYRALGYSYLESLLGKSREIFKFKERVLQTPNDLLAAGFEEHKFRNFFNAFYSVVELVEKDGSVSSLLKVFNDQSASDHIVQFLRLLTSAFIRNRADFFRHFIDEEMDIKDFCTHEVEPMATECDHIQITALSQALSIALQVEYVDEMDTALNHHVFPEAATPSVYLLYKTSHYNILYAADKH

in vitro [1] = experiment: in vitro; design: species or system HB2, HEK293; details: human, ccd841 cells
in vitro [2] = experiment: in vitro; design: species or system CCD841, HEK293; details: human, hb2 cells, read-out: HB-2 Cells Viability (%)
in vitro [3] = experiment: in vitro; design: species or system HB2, CCD841; details: human, hek293 cells

Compound: O=C(CCl)Nc1cc2ccccc2cc1C(=O)O [PCM-0102311]
- NUDT7 (NUDT7): 0.17
- BSA (BSA): 0
- NNMT (NNMT (hNNMT)): 0.2
- PCAF (PCAF): 0
- OTUB2 (OTUB2 (OTUB2A)): 0.1
- viability at 48 h, 10 µM (in vitro [1]): 100%
- viability at 48 h, 10 µM (in vitro [2]): 105%
- viability at 48 h, 10 µM (in vitro [3]): 109%

Compound: COC(=O)c1c(NC(=O)CCl)sc(C)c1C [PCM-0102322]
- NUDT7 (NUDT7): 0.4
- BSA (BSA): 0
- NNMT (NNMT (hNNMT)): 0.18
- PCAF (PCAF): 0
- OTUB2 (OTUB2 (OTUB2A)): 0
- viability at 48 h, 10 µM (in vitro [1]): 80%
- viability at 48 h, 10 µM (in vitro [2]): 62.5%
- viability at 48 h, 10 µM (in vitro [3]): 33.3%

Compound: Cc1cccc(CN2CCN(C(=O)CCl)CC2)c1 [PCM-0102340]
- NUDT7 (NUDT7): 0
- BSA (BSA): 0
- NNMT (NNMT (hNNMT)): 0.26
- PCAF (PCAF): 0
- OTUB2 (OTUB2 (OTUB2A)): 0.17
- viability at 48 h, 10 µM (in vitro [1]): 42.4%
- viability at 48 h, 10 µM (in vitro [2]): 19.6%
- viability at 48 h, 10 µM (in vitro [3]): 15.3%

Compound: CC(C)(C)c1ccc(C(=O)NNC(=O)CCl)cc1 [PCM-0102355]
- NUDT7 (NUDT7): 0
- BSA (BSA): 0
- NNMT (NNMT (hNNMT)): 0
- PCAF (PCAF): 0
- OTUB2 (OTUB2 (OTUB2A)): 0.66
- viability at 48 h, 10 µM (in vitro [1]): 44.3%
- viability at 48 h, 10 µM (in vitro [2]): 48.1%
- viability at 48 h, 10 µM (in vitro [3]): 53.7%

Compound: CN(C)C(=O)CNC(=O)CCl [PCM-0102365]
- NUDT7 (NUDT7): 0
- BSA (BSA): 0
- NNMT (NNMT (hNNMT)): 0
- PCAF (PCAF): 0
- OTUB2 (OTUB2 (OTUB2A)): 0
- viability at 48 h, 10 µM (in vitro [1]): 100%
- viability at 48 h, 10 µM (in vitro [2]): 103%
- viability at 48 h, 10 µM (in vitro [3]): 95.6%

Continued, in another order:

- NUDT7 (NUDT7): 0.12
- BSA (BSA): 0
- NNMT (NNMT (hNNMT)): 0
- PCAF (PCAF): 0
- OTUB2 (OTUB2 (OTUB2A)): 0.19
Compound: CN1C(=O)c2ccc(NC(=O)CCl)cc2C1=O [PCM-0102309]
- viability at 48 h, 10 µM (in vitro [1]): 61.2%
- viability at 48 h, 10 µM (in vitro [2]): 52.5%
- viability at 48 h, 10 µM (in vitro [3]): 67.2%

- NUDT7 (NUDT7): 0
- BSA (BSA): 0
- NNMT (NNMT (hNNMT)): 0
- PCAF (PCAF): 0
- OTUB2 (OTUB2 (OTUB2A)): 0.18
Compound: CC(=O)NNC(=O)CCl [PCM-0102310]
- viability at 48 h, 10 µM (in vitro [1]): 90.3%
- viability at 48 h, 10 µM (in vitro [2]): 96.1%
- viability at 48 h, 10 µM (in vitro [3]): 84.1%

- NUDT7 (NUDT7): 0.18
- BSA (BSA): 0
- NNMT (NNMT (hNNMT)): 0.32
- PCAF (PCAF): 0
- OTUB2 (OTUB2 (OTUB2A)): 0
Compound: NC(=O)c1ccsc1NC(=O)CCl [PCM-0102314]
- viability at 48 h, 10 µM (in vitro [1]): 74.4%
- viability at 48 h, 10 µM (in vitro [2]): 58.5%
- viability at 48 h, 10 µM (in vitro [3]): 33.7%

- NUDT7 (NUDT7): 0
- BSA (BSA): 0.12
- NNMT (NNMT (hNNMT)): 0
- PCAF (PCAF): 0
- OTUB2 (OTUB2 (OTUB2A)): 0
Compound: CC1(C)C2CCC1(C)C(NC(=O)CCl)C2 (centres unmarked) [PCM-0102315]
- viability at 48 h, 10 µM (in vitro [1]): 95%
- viability at 48 h, 10 µM (in vitro [2]): 84.4%
- viability at 48 h, 10 µM (in vitro [3]): 75.9%

- NUDT7 (NUDT7): 1
- BSA (BSA): 0
- NNMT (NNMT (hNNMT)): 0.71
- PCAF (PCAF): 0
- OTUB2 (OTUB2 (OTUB2A)): 0
Compound: COc1ccc2nc(NC(=O)CCl)sc2c1 [PCM-0102330]
- viability at 48 h, 10 µM (in vitro [1]): 44.6%
- viability at 48 h, 10 µM (in vitro [2]): 32.7%
- viability at 48 h, 10 µM (in vitro [3]): 39.7%

- NUDT7 (NUDT7): 0
- BSA (BSA): 0
- NNMT (NNMT (hNNMT)): 0
- PCAF (PCAF): 0
- OTUB2 (OTUB2 (OTUB2A)): 0.19
Compound: O=C(CCl)Nc1ccnn1C1CCCC1 [PCM-0102336]
- viability at 48 h, 10 µM (in vitro [1]): 60.4%
- viability at 48 h, 10 µM (in vitro [2]): 41.3%
- viability at 48 h, 10 µM (in vitro [3]): 7.7%

- NUDT7 (NUDT7): 0
- BSA (BSA): 0
- NNMT (NNMT (hNNMT)): 0.53
- PCAF (PCAF): 0
- OTUB2 (OTUB2 (OTUB2A)): 0.45
Compound: Cc1oc(NC(=O)CCl)c(C#N)c1C [PCM-0102337]
- viability at 48 h, 10 µM (in vitro [1]): 56.4%
- viability at 48 h, 10 µM (in vitro [2]): 56.5%
- viability at 48 h, 10 µM (in vitro [3]): 82.9%

- NUDT7 (NUDT7): 0.18
- BSA (BSA): 0
- NNMT (NNMT (hNNMT)): 0.7
- PCAF (PCAF): 0
- OTUB2 (OTUB2 (OTUB2A)): 0.82
Compound: Cc1ccc(NC(=O)CCl)cc1C [PCM-0102339]
- viability at 48 h, 10 µM (in vitro [1]): 34.9%
- viability at 48 h, 10 µM (in vitro [2]): 5.2%
- viability at 48 h, 10 µM (in vitro [3]): 1.5%
